Drawing on US9278093B2, “Aldosterone synthase inhibitors” (Merck Sharp & Dohme Corp., priority 2012, dated 2016), this text covers IC50 for four molecules.

For one assay, the target named is human CYP11B2 (Homo sapiens (Human), UniProt P19099). As to the kind of experiment: V79-Human-CYP11B2 Assay. The assay is classed as cell-based. Conditions: V79MZh11B2 cells, substrate deoxycorticosterone 100 nM, 50 min incubation. The method, then: (§1) V79MZh11B1 and V79MZh11B2 cells (8×10^5 cells/well) were grown on 24-well culture plates until confluence. Before testing, the DMEM culture medium was removed and 450 μl of fresh DMEM containing the inhibitor was added to each well. After a preincubation step of 60 min at 37° C., the reaction was started by the addition of 50 μl of DMEM in which the substrate deoxycorticosterone (containing 0.15 μCi of [1,2-3H]-deoxycorticosterone in ethanol, final test concentration 100 nM) was dissolved. Incubation times were 25 min for V79MZh11B1 and 50 min for V79MZh11B2 cells at 37° C., respectively. The enzyme reactions were stopped by extracting the supernatant with ethyl acetate. Samples were centrifuged (10.000 g, 5 min) and the solvent was pipetted into fresh cups. After evaporation of the solvent, the steroids were redissolved in 40 μl of […] and analyzed by HPLC. Detection and quantification of the steroids were performed using a radioflow detector. To first estimate the different IC50 values, five different concentrations ranging from 1 to 10.000 nM were measured. For the following IC50 determination, three different concentrations (repeat-determinations) were measured for each […] value of each inhibitor in which the second concentration led to an inhibition of approximately 40 to 60%. […] The final IC50 value was estimated as the average of three or four independent IC50 values and a selectivity factor corresponding to the ratio between the […] values of CYP11B1 and CYP11B2 was calculated for each substance.
Chain of human CYP11B2 (P19099 25-503): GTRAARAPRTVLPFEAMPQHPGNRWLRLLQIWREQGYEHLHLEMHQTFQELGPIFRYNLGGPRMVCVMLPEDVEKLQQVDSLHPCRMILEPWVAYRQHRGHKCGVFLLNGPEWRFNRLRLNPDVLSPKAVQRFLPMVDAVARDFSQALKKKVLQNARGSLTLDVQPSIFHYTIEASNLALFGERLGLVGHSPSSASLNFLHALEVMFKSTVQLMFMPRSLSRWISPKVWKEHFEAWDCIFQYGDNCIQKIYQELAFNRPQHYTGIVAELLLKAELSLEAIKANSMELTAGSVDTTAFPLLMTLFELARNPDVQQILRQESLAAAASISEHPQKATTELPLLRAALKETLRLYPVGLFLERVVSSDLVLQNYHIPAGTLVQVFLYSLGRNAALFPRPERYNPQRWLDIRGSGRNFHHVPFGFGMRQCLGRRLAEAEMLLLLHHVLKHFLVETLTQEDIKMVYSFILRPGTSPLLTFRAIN

The next assay addresses human CYP11B1 (Homo sapiens (Human), UniProt P15538). As to the kind of experiment: V79-Human-CYP11B1 Assay. The assay is classed as cell-based. As to conditions: V79MZh11B1 cells, substrate deoxycorticosterone 100 nM, 25 min incubation. The method, then:
as §1

Chain of human CYP11B1 (P15538 25-503): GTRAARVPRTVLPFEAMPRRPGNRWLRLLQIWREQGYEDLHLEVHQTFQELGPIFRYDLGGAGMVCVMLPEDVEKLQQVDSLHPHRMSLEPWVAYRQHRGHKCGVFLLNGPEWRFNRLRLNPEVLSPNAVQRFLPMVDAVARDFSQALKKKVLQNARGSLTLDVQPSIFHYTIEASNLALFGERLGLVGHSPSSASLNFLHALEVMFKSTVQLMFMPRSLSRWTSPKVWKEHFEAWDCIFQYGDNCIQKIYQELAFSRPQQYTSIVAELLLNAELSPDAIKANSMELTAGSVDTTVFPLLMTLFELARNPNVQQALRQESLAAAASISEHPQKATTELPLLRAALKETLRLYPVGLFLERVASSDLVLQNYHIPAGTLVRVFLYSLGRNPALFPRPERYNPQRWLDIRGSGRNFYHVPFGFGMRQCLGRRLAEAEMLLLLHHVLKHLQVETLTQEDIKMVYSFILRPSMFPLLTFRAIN

Consider `Cc1nnc2n1-c1c(F)cc(-c3cncc(F)c3Cl)cc1CC2` [Example 4, 7-(4-chloro-5-fluoropyridin-3-yl)-9-fluoro-1-methyl-4,5-dihydro-[1,2,4]triazolo[4,3-a]quinoline], for which the IC50 on human CYP11B2 stood at 21.6 nM; at human CYP11B1, 9.8 µM.

Take `Cc1c(F)cncc1-c1cc(F)c2c(c1)CCc1nnc(C)n1-2` [Example 2, 9-fluoro-7-(5-fluoro-4-methylpyridin-3-yl)-1-methyl-4,5-dihydro-[1,2,4]triazolo[4,3-a]quinoline]: the values for the IC50 on human CYP11B2 and against human CYP11B1 were 6 nM and 1.42 µM, respectively.

For `Cc1nnc2n1-c1c(F)cc(-c3cncc(F)c3C(C)C)cc1CC2` [Example 3, 9-fluoro-7-(5-fluoro-4-isopropylpyridin-3-yl)-1-methyl-4,5-dihydro-[1,2,4]triazolo[4,3-a]quinoline], the figures for the 50% inhibitory concentration (IC50) against human CYP11B2 and at human CYP11B1 were 9.5 nM and 3.97 µM, respectively.

Consider `Cc1nnc2n1-c1c(F)cc(-c3cncc(F)c3C3CC3)cc1CC2` [Example 1, 7-(4-cyclopropyl-5-fluoropyridin-3-yl)-9-fluoro-1-methyl-4,5-dihydro-[1,2,4]triazolo[4,3-a]quinoline], for which the IC50 came out at 7.3 nM on human CYP11B2 and 2.29 µM on human CYP11B1.

Broadly, the IC50 is the concentration at which inhibition is half-maximal. Higher therefore signals weaker potency.
